Measured values as given in PubChem BioAssay (NCI).
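Tested at 5 concentrations; 48 h exposure; 96-well plates; endpoints linearly interpolated, else capped at highest concentration. GI50 is the concentration that inhibits growth by half. Definition used: TGI = concentration required for complete inhibition of growth.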

Legend:
Assay in all cases: growth of human tumour cells (NCI), 48 h
CCRF-CEM leukemia = system: CCRF-CEM leukemia
HCT-15 colon = system: HCT-15 colon
NCI-H23 lung = system: NCI-H23 lung
OVCAR-3 ovarian = system: OVCAR-3 ovarian
SK-OV-3 ovarian = system: SK-OV-3 ovarian
RPMI-8226 leukemia = system: RPMI-8226 leukemia
HCT-116 colon = system: HCT-116 colon
K-562 leukemia = system: K-562 leukemia
SF-268 CNS = system: SF-268 CNS
MCF7 breast = system: MCF7 breast
MDA-MB-231 breast = system: MDA-MB-231 breast
HOP-92 NSCLC = system: HOP-92 NSCLC
NCI-H226 lung = system: NCI-H226 lung
UACC-62 melanoma = system: UACC-62 melanoma
SK-MEL-2 melanoma = system: SK-MEL-2 melanoma
MDA-MB-435 = system: MDA-MB-435
HS 578T breast = system: HS 578T breast
SF-539 CNS = system: SF-539 CNS
LOX IMVI melanoma = system: LOX IMVI melanoma
DU-145 prostate = system: DU-145 prostate
HL-60(TB) leukemia = system: HL-60(TB) leukemia
786-0 renal = system: 786-0 renal
SW-620 colon = system: SW-620 colon
A498 renal = system: A498 renal
HCC-2998 colon = system: HCC-2998 colon
COLO 205 colon = system: COLO 205 colon
EKVX NSCLC = system: EKVX NSCLC
NCI/ADR-RES ovarian = system: NCI/ADR-RES ovarian
OVCAR-8 ovarian = system: OVCAR-8 ovarian
SK-MEL-28 melanoma = system: SK-MEL-28 melanoma
NCI-H460 lung = system: NCI-H460 lung
HOP-62 NSCLC = system: HOP-62 NSCLC
UO-31 renal = system: UO-31 renal
IGROV1 ovarian = system: IGROV1 ovarian
SR leukemia = system: SR leukemia
A549 NSCLC = system: A549 NSCLC
TK-10 renal = system: TK-10 renal
RXF 393 renal = system: RXF 393 renal
NCI-H522 lung = system: NCI-H522 lung
UACC-257 melanoma = system: UACC-257 melanoma
M14 melanoma = system: M14 melanoma
U251 CNS = system: U251 CNS
MOLT-4 leukemia = system: MOLT-4 leukemia
SF-295 CNS = system: SF-295 CNS
OVCAR-5 ovarian = system: OVCAR-5 ovarian
PC-3 prostate = system: PC-3 prostate
CAKI-1 renal = system: CAKI-1 renal
HT29 colon = system: HT29 colon
SN12C renal = system: SN12C renal
SNB-75 CNS = system: SNB-75 CNS
BT-549 breast = system: BT-549 breast
SK-MEL-5 melanoma = system: SK-MEL-5 melanoma
MALME-3M melanoma = system: MALME-3M melanoma
OVCAR-4 ovarian = system: OVCAR-4 ovarian
ACHN renal = system: ACHN renal
SNB-19 CNS = system: SNB-19 CNS
KM12 colon = system: KM12 colon

## CC1OC(O[C@@H]2C(O)C(CO)OC(O[C@H]3COC(O[C@H]4CC[C@]5(C)[C@H]6CC[C@]78OC[C@@]9(CC[C@](C)(C=O)C[C@H]97)[C@H](O)C[C@@]8(C)[C@]6(C)CC[C@H]5C4(C)C)[C@@H](OC4OC(CO)[C@@H](O)[C@@H](O)[C@@H]4O)[C@@H]3O)[C@H]2OC2OC[C@@H](O)[C@@H](O)[C@@H]2O)[C@@H](O)[C@@H](O)[C@H]1O (stereo partly specified)
CCRF-CEM leukemia
  GI50: 1210 nM
  TGI: 4.34 µM
HCT-15 colon
  GI50: 2230 nM
  TGI: 5.01 µM
NCI-H23 lung
  GI50: 1890 nM
  TGI: 3.74 µM
OVCAR-3 ovarian
  GI50: 1980 nM
  TGI: 3.82 µM
SK-OV-3 ovarian
  GI50: 1920 nM
  TGI: 3.49 µM
RPMI-8226 leukemia
  GI50: 1730 nM
  TGI: 4.28 µM
HCT-116 colon
  GI50: 1480 nM
  TGI: 2980 nM
K-562 leukemia
  GI50: 2200 nM
  TGI: 5.68 µM
SF-268 CNS
  GI50: 1910 nM
  TGI: 3.91 µM
MCF7 breast
  GI50: 1980 nM
  TGI: 4.11 µM
MDA-MB-231 breast
  GI50: 1760 nM
  TGI: 3.51 µM
HOP-92 NSCLC
  GI50: 982 nM
  TGI: 2620 nM
NCI-H226 lung
  GI50: 1890 nM
  TGI: 3.98 µM
UACC-62 melanoma
  GI50: 1970 nM
  TGI: 3.82 µM
SK-MEL-2 melanoma
  GI50: 2330 nM
  TGI: 4.24 µM
MDA-MB-435
  GI50: 1850 nM
  TGI: 3.57 µM
HS 578T breast
  GI50: 1920 nM
  TGI: 4.14 µM
SF-539 CNS
  GI50: 1610 nM
  TGI: 3.1 µM
LOX IMVI melanoma
  GI50: 1740 nM
  TGI: 3.39 µM
DU-145 prostate
  GI50: 1950 nM
  TGI: 3.71 µM
HL-60(TB) leukemia
  GI50: 598 nM
  TGI: 2.19 µM
786-0 renal
  GI50: 2140 nM
  TGI: 3.97 µM
SW-620 colon
  GI50: 1840 nM
  TGI: 3.7 µM
A498 renal
  GI50: 2260 nM
  TGI: 3.98 µM
HCC-2998 colon
  GI50: 1950 nM
  TGI: 3.52 µM
COLO 205 colon
  GI50: 1620 nM
  TGI: 3.16 µM
EKVX NSCLC
  GI50: 1930 nM
  TGI: 3.84 µM
NCI/ADR-RES ovarian
  GI50: 1.97 µM
  TGI: 4.15 µM
OVCAR-8 ovarian
  GI50: 2100 nM
  TGI: 4.28 µM
SK-MEL-28 melanoma
  GI50: 1690 nM
  TGI: 3.29 µM
NCI-H460 lung
  GI50: 1880 nM
  TGI: 3.83 µM
HOP-62 NSCLC
  GI50: 1760 nM
  TGI: 3.47 µM
UO-31 renal
  GI50: 1350 nM
  TGI: 2.82 µM
IGROV1 ovarian
  GI50: 1820 nM
  TGI: 3.93 µM
SR leukemia
  GI50: 357 nM
  TGI: 1240 nM
A549 NSCLC
  GI50: 2110 nM
  TGI: 4.04 µM
TK-10 renal
  GI50: 2790 nM
  TGI: 4.51 µM
RXF 393 renal
  GI50: 811 nM
  TGI: 2400 nM
NCI-H522 lung
  GI50: 1970 nM
  TGI: 3.75 µM
UACC-257 melanoma
  GI50: 2030 nM
  TGI: 3.77 µM
M14 melanoma
  GI50: 1710 nM
  TGI: 3.4 µM
U251 CNS
  GI50: 2120 nM
  TGI: 3.87 µM
MOLT-4 leukemia
  GI50: 1130 nM
  TGI: 3.98 µM
SF-295 CNS
  GI50: 1760 nM
  TGI: 3.31 µM
OVCAR-5 ovarian
  GI50: 1860 nM
  TGI: 3.42 µM
PC-3 prostate
  GI50: 1950 nM
  TGI: 3.64 µM
CAKI-1 renal
  GI50: 1890 nM
  TGI: 3.48 µM
HT29 colon
  GI50: 1990 nM
  TGI: 4.02 µM
SN12C renal
  GI50: 1700 nM
  TGI: 3.51 µM
SNB-75 CNS
  GI50: 1700 nM
  TGI: 3250 nM
BT-549 breast
  GI50: 1770 nM
  TGI: 3.5 µM
SK-MEL-5 melanoma
  GI50: 2380 nM
  TGI: 5.81 µM
MALME-3M melanoma
  GI50: 1740 nM
  TGI: 3.51 µM
OVCAR-4 ovarian
  GI50: 1840 nM
  TGI: 3.93 µM
ACHN renal
  GI50: 1500 nM
  TGI: 2.92 µM
SNB-19 CNS
  GI50: 1810 nM
  TGI: 3.71 µM

## NC(N)=Nc1ccc(Oc2cccc(Nc3ccc(Cl)cc3)c2)cn1
CCRF-CEM leukemia
  GI50: 2040 nM
  TGI: 5.27 µM
NCI-H23 lung
  GI50: 1660 nM
  TGI: 3.24 µM
OVCAR-3 ovarian
  GI50: 1800 nM
  TGI: 3.63 µM
SK-OV-3 ovarian
  GI50: 2110 nM
  TGI: 4.16 µM
RPMI-8226 leukemia
  GI50: 2020 nM
  TGI: 5.08 µM
K-562 leukemia
  GI50: 2660 nM
  TGI: 8.21 µM
SF-268 CNS
  GI50: 1720 nM
  TGI: 3.75 µM
HOP-92 NSCLC
  GI50: 1070 nM
  TGI: 2390 nM
UACC-62 melanoma
  GI50: 1740 nM
  TGI: 3.28 µM
HS 578T breast
  GI50: 1990 nM
  TGI: 4.52 µM
SF-539 CNS
  GI50: 1650 nM
  TGI: 3.13 µM
DU-145 prostate
  GI50: 1760 nM
  TGI: 3.27 µM
HL-60(TB) leukemia
  GI50: 2520 nM
  TGI: 4.75 µM
SW-620 colon
  GI50: 1830 nM
  TGI: 3.55 µM
A498 renal
  GI50: 1170 nM
  TGI: 2.66 µM
NCI/ADR-RES ovarian
  GI50: 4.05 µM
  TGI: 20.5 µM
OVCAR-8 ovarian
  GI50: 1970 nM
  TGI: 4.46 µM
SK-MEL-28 melanoma
  GI50: 1670 nM
  TGI: 3.12 µM
UO-31 renal
  GI50: 1710 nM
  TGI: 3.28 µM
KM12 colon
  GI50: 2080 nM
  TGI: 4.58 µM
TK-10 renal
  GI50: 1690 nM
  TGI: 3.3 µM
RXF 393 renal
  GI50: 1780 nM
  TGI: 3370 nM
NCI-H522 lung
  GI50: 1530 nM
  TGI: 3.13 µM
PC-3 prostate
  GI50: 1460 nM
  TGI: 2.84 µM
CAKI-1 renal
  GI50: 1640 nM
  TGI: 3.17 µM
SNB-75 CNS
  GI50: 1270 nM
  TGI: 2570 nM
ACHN renal
  GI50: 1730 nM
  TGI: 3.13 µM
